Where two headings read alike, the source gives them in different places.
What was measured:
CYP2C9 = CYP2C9 (Homo sapiens, UniProt P11712); experiment: CYP2C9 inhibition
Description: (§5) LM – Liver microsome (half-life in minutes)
PPB – Plasma Protein Binding
(§6) PS – Plasma Stability (% remaining at 2 hours)

CYP3A4 = CYP3A4 (Homo sapiens, UniProt P08684); experiment: CYP3A4 inhibition
Description: as §5
PPB – Plasma Protein Binding
as §6

Mouse plasma stability = settings: % remaining at 2 hours
Description: as §5
PPB – Plasma Protein Binding
as §6

[1] = Mouse liver microsome stability; settings: liver microsomes
Description: as §5
PPB – Plasma Protein Binding
as §6

Human plasma stability = settings: % remaining at 2 hours
Description: as §5
PPB – Plasma Protein Binding
as §6

[2] = target: hERG (human ether-a-go-go K+ ion channel) (Homo sapiens, UniProt Q12809); experiment: hERG QPatch assay
Description: as §5
PPB – Plasma Protein Binding
as §6

CYP2D6 = CYP2D6 (Homo sapiens, UniProt P10635); experiment: CYP2D6 inhibition
Description: as §5
PPB – Plasma Protein Binding
as §6

[3] = Human liver microsome stability; settings: liver microsomes
Description: as §5
PPB – Plasma Protein Binding
as §6

CYP1A2 = target: T1, CYP1A2 (Homo sapiens, UniProt P05177); experiment: CYP1A2 inhibition
T1 sequence (P05177 1-516): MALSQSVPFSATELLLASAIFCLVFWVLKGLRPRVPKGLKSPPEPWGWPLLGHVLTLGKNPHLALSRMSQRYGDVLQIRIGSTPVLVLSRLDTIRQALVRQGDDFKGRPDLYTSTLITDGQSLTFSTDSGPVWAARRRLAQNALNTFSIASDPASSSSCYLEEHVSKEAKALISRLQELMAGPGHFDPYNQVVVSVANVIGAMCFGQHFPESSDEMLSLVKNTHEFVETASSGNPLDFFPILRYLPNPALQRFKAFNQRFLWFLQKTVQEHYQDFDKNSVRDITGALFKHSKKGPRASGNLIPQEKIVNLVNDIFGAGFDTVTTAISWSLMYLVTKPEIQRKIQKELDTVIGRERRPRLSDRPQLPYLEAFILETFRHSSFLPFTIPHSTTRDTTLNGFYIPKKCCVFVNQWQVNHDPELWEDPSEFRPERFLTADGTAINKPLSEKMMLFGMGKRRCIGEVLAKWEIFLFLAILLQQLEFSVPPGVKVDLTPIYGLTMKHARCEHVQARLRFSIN

[4] = Human plasma protein binding
Description: as §5
PPB – Plasma Protein Binding
as §6

[5] = Mouse plasma protein binding
Description: as §5
PPB – Plasma Protein Binding
as §6

[6] = Single-dose pharmacokinetics (plasma and brain) in C57BL/6J mice; assay type: in vivo, mouse; settings: for Tolerability in single-dose pharmacokinetic studies: fasted male C57BL/6J mice, i.v. 4 mg/kg or oral 20 mg/kg; for bioavailability / Oral half-life: plasma; for bioavailability: oral, p.o. 20 mg/kg vs i.v. 4 mg/kg; for Oral half-life: p.o. 20 mg/kg
AIM2 inflammasome = target: T2, AIM2 inflammasome (Mus musculus, UniProt Q91VJ1); experiment: AIM2 inflammasome activation by poly(dA:dT) in bone marrow macrophages; assay type: cell-based; settings: C57BL/6J bone marrow macrophages stimulated with poly(dA:dT); n=2
T2 construct: marrow cells were isolated from C57BL/6J mice and cultured macrophages stimulated with S; endogenous in cells; host or cells: bone-marrow-derived macrophages from C57BL/6J mice
T2 sequence (Q91VJ1 1-354): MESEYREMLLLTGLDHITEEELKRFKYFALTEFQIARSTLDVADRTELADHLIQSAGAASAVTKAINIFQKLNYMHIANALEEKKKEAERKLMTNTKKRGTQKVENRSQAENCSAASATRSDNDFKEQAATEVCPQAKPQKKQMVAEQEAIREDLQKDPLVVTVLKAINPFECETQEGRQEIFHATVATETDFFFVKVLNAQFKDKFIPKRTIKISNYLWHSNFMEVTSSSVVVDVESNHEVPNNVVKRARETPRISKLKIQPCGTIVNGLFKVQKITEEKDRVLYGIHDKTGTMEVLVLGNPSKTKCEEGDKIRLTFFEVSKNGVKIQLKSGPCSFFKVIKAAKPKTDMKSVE
Text: (§1) marrow cells were isolated from C57BL/6J mice and cultured macrophages stimulated with S.
(§2) typhimurium (S.typ) and poly(dA:dT) to activate [A] NLRC4 and [B] AIM2 inflammasomes. No […]

[7] = test system: 95 targets (Eurofins Cerep panel); experiment: Off-target screen, Eurofins Cerep panel (binding, enzyme and uptake assays); settings: 10uM
Description: (10uM) was screened for inhibition or activation activities at 95 targets (Eurofins Cerep panel) in
binding and enzyme and uptake assays. […]

NLRC4 inflammasome = target: T3, NLRC4 inflammasome (Mus musculus, UniProt Q3UP24); experiment: NLRC4 inflammasome activation by S. typhimurium in bone marrow macrophages; assay type: cell-based; settings: C57BL/6J bone marrow macrophages stimulated with S. typhimurium; n=2
T3 construct: marrow cells were isolated from C57BL/6J mice and cultured macrophages stimulated with S; endogenous in cells; host or cells: bone-marrow-derived macrophages from C57BL/6J mice
Text: as §1, §2

[8] = test system: 6-OHDA Parkinson's mouse model; experiment: 6-OHDA Parkinson's mouse model, oral gavage dose response (rotations, striatal dopamine); settings: for ED50: Mus musculus
Description: 6-hydroxydopamine (6-OHDA; Sigma) was dissolved in saline with 0.2% ascorbic acid to a final injected dose of 12 μg as previously described.[18]
Mice received analgesics and fluids and were placed on a heat pad until recovery.
D-amphetamine (2 mg/kg) was administered either 17 or 21 days post-6-OHDA; net ipsilateral turns over 10 min were recorded.
Striatal dopamine and metabolites were quantified by LC-MS/MS as previously described.[36]
(B) Amphetamine-induced ipsilateral rotations at Day 21, and (C–E) levels of striatal dopamine, 3,4-dihydroxyphenylacetic acid (DOPAC) and homovanillic acid (HVA) 28 days following saline or 6-OHDA injection. […] Data in B–E are presented as box-whisker plot with median (line), 25th to 75th percentiles (box) and full range (whiskers) shown. **P < 0.01, ***P < 0.001 by one-way ANOVA (two-tailed), and Dunnett’s post-test comparing to untreated 6-OHDA group.
administration to fasted 8–10-week-old C57BL/6J male mice was performed using an adapted method as previously described (30). At the relevant time point following dosing, blood samples were collected for plasma and the brain perfused with PBS for 5 min; CSF was also collected from separate groups of mice. Brain homogenates were prepared from dissected brains by homogenizing total brain (0.5 g) with four volumes (2 mL) of deionized water.
C57BL/6J mice were anaesthetized using ketamine hydrochloride (100 mg/kg) and xylazine (10 mg/kg), and were placed into a stereotactic frame with nose and ear bars specially adapted for mice. A digital stereotaxic instrument was used with a 5 μL Hamilton syringe to deliver either a sterile saline solution (0.9% sodium chloride) containing 0.2% ascorbic acid, 6-hydroxydopamine (6-OHDA; 12 μg) dissolved in saline containing 0.2% ascorbic acid, α-synuclein pre-formed fibrils (PFF-Syn; 8 μg in PBS), or PBS alone, into the right dorsal striatum of mice at the following stereotaxic coordinates relative to bregma (mm): -2.0 medial-lateral, + 0.5 anterior-posterior, -3.0 mm dorsal-ventral below the pial surface. After drilling a 1 mm burr-hole in the skull, a 2 μl volume of solution was infused at the target site at the rate of 0.5 μl per minute. The needle was held in place for at least 5 minutes after injection to minimize retrograde flow along the needle tract. Mice were given a subcutaneous injection of sterile Ringer ’s solution to help facilitate recovery and carprofen (5 mg/kg) for post-operative pain relief and were placed on a heat-pad until complete recovery from anaesthesia.
8-10 week-old C57BL/6J male mice were housed under a 12-hr light cycle in a SPF climate-controlled facility with food and water provided ad libitum for two weeks prior to study initiation.
mg/kg), or by drinking water (0.3mg/ml), with studies performed at UQ or by CROs. […]

healthy subjects = test system: healthy subjects; parameters: method as in NCT04015076; settings: randomized, double-blinded, placebo-controlled, single and multiple ascending dose, ref NCT04015076; cited from earlier work
PFF-Syn mouse model = experiment: PFF-Syn Parkinson's disease mouse model, preventative and therapeutic dosing in drinking water; assay type: in vivo
Description: Recombinant human α-synuclein (rPeptide) was incubated in PBS at 37°C, 400 rpm, for 7 days with daily sonication cycle. Fibril formation was validated by transmission electron microscopy (TEM) and Thioflavin T fluorescence.[34],[35]
(§3) The Supplementary material contains detailed treatment regimens.
(§4) Blood was collected in ethylenediaminetetraacetic acid (EDTA) tubes, plasma aliquoted and stored at −80°C. IL-1β was quantified by ELISA (R&D Systems). Extended methods are in the Supplementary material.
Mice traversed a 0.5 cm × 1 m beam apparatus; latency to cross was measured at 4, 6, 8 and 10 months post-PFF-Syn.
Accelerated rotarod (5–40 rpm over 5 min) assessed latency to fall at 4, 6, 8 and 10 months post-PFF-Syn as previously described.[17],[18]
At 11 months post-PFF injection, mice were scanned with ^18F-DPA-714 PET/MRI. Regions of interest (ROIs) were anatomically defined in striatum using MRI guidance. SUVRs and T1 relaxation times were calculated. Extended imaging parameters are in the Supplementary material.
(A) Schematic of the PFF-Syn study [created in BioRender. […] (B–E) Rotarod and (F–I) balance-beam testing of mice at 4, 6, 8 and 10 months post PFF-Syn or saline injection (n = 8–10/group). […] (K) Time-activity curves for ^18F-DPA-714 generated from dynamic imaging and presented as standard uptake value ratio (SUV-ratio) from ipsilateral to contralateral hemispheres (n = 4–8/group). (L) Sixty minute SUV-ratio time point for data in L. (M) Representative autoradiography images for ^18F-DPA-714 from brain slices taken following PET imaging. (N) Quantitation of ^18F-DPA-714 autoradiography, and blockade of signal with PK11195. (O) Representative immunohistochemistry for microglial marker ionized calcium-binding adaptor molecule 1 (Iba1; green) from brain slices taken following PET imaging; cell nuclei 4′,6-diamidino-2-phenylindole (DAPI; blue). Square dotted line box in M represents approximate region imaged; magnification ×40, scale bars = 20 μm. (P) Ipsilateral striatal dopamine quantitation, and (Q) plasma interleukin (IL)-1β concentrations in mice after completion of PET imaging experiments (n = 4–8/group).

[9] = test system: 6-OHDA Parkinson's mouse model; experiment: 6-OHDA mouse model, PET/MRI imaging study with MCC7840 in drinking water; assay type: in vivo; settings: 0.3 mg/ml in drinking water
Description: as §3, §4
On Days 24–28 post-surgery, mice underwent PET/MRI with ^18F-DPA-714 (Day 24), ^18F-FBCTT (Day 26) and ^18F-FDOPA (Day 28) to assess microglial activation, dopamine transporter function and presynaptic dopamine synthesis, respectively. Standardized uptake value ratios (SUVRs) were calculated as ipsilateral/contralateral striatum ratios. Detailed acquisition and analysis methods are provided in the Supplementary material.
The microglial IC50 and IC90 values are shown with dotted lines. (B) Schematic of the 6-OHDA imaging study [created in BioRender. […] (C) Amphetamine-induced ipsilateral rotations at Day 17. (D–F) Structures of ^18F-DPA-714, ^18F-FBCTT and ^18F-FDOPA. […] (H) Time-activity curves for ^18F-DPA-714 generated from dynamic imaging and presented as standard uptake value ratio from ipsilateral to contralateral hemispheres (standardized uptake value ratio, SUV-ratios). The 60 min imaging time point is shown on the right. (I) Representative brain PET/MRI images and (J) quantitative SUV-ratios for ^18F-FBCTT. […] (K) Representative brain PET/MRI images and (L) quantitative SUV-ratios for ^18F-FDOPA. […] (M–O) MRI blood–brain barrier leakage measurement of gadolinium T1 relaxation time values in ipsilateral (M) and contralateral (N) hemispheres and expressed as a ratio (O). (P) Plasma IL-1β concentrations in mice at Day 28. […] SUV-BW = standard uptake value corrected for body weight.
To perform PET imaging, the same mouse was intravenously administered three radiotracers at sequential time points: ^18F-DPA-714 at Day 24 to label TSPO and neuroinflammation (Fig. 5D), ^18F-FBCTT at Day 26 to label dopamine transporter (DAT) availability (Fig. 5E)[42] and ^18F-FDOPA at Day 28 to label dopamine uptake (Fig. 5F),[43] following 6-OHDA or saline injection. At each time point, mice were anaesthetized and imaged using PET/MRI to visualize radiotracer uptake in the brains of living mice (Fig. 5B).
DOPA and F-rac-DOPA. Chiral HPLC method: Daicel Crownpak CR+ (4.0 × 150mm x 5µm, Part No. 27714), Flow rate = 0.8ml/min with 100% (perchloric acid pH 2.0).
PET/MRI imaging in the 6-OHDA model
Twenty-four days post-surgery, mice from each experimental group were injected with a radiotracer every second day in a group of 3-4 mice per imaging week. Three different radiotracers were used on three different days. [18F]DPA-714 (24th day post-surgery) was used to target the translocator protein, TSPO, overexpressed in activated microglia during neuroinflammation. […]

[10] = Mouse % PPB, plasma protein binding
[11] = 6, 8 and 10 months, both preventative and therapeutic groups

Sequence of CYP3A4 (P08684 whole entry): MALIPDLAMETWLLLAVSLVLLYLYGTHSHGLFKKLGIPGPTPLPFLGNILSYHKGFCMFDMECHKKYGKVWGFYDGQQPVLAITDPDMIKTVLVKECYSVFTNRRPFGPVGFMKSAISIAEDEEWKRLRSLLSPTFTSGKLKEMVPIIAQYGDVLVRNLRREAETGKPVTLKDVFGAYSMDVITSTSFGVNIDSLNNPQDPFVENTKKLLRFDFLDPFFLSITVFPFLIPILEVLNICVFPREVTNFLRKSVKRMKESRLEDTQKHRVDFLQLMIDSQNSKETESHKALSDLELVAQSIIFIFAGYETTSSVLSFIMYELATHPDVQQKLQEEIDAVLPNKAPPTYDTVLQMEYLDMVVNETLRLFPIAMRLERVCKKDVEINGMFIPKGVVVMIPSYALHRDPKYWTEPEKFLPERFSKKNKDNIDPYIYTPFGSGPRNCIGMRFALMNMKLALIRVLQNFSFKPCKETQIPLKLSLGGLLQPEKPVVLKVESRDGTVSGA
Sequence of hERG (human ether-a-go-go K+ ion channel) (Q12809 whole entry): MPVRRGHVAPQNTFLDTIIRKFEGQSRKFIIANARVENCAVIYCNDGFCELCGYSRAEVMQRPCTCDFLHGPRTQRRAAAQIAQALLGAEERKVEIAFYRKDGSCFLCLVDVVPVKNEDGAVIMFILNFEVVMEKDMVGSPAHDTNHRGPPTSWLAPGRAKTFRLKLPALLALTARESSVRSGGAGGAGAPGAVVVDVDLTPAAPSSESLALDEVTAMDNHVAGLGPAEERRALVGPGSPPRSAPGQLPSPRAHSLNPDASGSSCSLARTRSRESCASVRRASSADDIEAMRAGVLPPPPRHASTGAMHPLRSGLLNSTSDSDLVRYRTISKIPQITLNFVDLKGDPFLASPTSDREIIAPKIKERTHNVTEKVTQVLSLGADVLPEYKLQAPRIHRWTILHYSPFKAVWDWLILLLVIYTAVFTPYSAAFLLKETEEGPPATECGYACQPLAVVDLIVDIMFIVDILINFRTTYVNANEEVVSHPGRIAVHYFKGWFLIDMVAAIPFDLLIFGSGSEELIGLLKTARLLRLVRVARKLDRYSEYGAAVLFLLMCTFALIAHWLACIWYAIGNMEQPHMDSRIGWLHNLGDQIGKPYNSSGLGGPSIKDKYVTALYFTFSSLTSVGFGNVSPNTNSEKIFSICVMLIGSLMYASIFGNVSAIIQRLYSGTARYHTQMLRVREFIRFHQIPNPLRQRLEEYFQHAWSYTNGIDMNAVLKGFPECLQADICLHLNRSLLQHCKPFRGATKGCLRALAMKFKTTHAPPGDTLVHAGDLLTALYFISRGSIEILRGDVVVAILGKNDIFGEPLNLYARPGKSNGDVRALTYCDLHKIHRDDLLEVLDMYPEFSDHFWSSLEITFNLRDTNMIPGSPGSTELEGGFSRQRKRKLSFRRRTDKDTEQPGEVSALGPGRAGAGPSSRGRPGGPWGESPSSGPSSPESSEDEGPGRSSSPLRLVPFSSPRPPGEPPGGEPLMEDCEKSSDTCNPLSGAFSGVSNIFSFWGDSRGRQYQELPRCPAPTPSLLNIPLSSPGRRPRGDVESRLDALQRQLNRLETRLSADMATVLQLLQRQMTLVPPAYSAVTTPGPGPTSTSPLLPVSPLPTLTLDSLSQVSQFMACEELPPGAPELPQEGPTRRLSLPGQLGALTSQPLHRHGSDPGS
Sequence of CYP2D6 (P10635 whole entry): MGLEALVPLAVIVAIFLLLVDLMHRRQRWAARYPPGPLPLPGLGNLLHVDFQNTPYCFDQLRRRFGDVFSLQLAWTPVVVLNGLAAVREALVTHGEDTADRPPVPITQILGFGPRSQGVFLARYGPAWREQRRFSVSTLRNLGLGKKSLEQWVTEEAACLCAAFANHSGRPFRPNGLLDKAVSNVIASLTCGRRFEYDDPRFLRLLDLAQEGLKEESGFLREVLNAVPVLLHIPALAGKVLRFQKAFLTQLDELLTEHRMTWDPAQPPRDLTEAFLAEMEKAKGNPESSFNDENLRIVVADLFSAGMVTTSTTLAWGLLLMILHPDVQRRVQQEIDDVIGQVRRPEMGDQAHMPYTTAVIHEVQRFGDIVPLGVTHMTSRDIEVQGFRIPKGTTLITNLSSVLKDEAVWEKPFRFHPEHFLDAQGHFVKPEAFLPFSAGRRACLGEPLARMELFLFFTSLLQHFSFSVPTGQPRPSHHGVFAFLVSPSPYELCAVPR
Sequence of CYP2C9 (P11712 whole entry): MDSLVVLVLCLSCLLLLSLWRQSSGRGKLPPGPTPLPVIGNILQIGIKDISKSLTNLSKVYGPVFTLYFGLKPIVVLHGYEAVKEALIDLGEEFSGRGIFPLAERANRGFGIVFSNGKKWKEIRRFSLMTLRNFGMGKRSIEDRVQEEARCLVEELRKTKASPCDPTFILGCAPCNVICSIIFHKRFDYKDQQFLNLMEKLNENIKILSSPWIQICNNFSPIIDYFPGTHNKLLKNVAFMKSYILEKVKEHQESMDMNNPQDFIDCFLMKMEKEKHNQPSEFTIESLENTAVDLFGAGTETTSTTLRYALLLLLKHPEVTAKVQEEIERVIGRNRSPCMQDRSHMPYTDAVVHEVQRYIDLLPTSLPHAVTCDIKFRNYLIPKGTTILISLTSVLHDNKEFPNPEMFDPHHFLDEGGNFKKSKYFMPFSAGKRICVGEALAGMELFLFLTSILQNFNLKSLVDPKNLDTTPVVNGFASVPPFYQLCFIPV
T3 sequence (Q3UP24 whole entry): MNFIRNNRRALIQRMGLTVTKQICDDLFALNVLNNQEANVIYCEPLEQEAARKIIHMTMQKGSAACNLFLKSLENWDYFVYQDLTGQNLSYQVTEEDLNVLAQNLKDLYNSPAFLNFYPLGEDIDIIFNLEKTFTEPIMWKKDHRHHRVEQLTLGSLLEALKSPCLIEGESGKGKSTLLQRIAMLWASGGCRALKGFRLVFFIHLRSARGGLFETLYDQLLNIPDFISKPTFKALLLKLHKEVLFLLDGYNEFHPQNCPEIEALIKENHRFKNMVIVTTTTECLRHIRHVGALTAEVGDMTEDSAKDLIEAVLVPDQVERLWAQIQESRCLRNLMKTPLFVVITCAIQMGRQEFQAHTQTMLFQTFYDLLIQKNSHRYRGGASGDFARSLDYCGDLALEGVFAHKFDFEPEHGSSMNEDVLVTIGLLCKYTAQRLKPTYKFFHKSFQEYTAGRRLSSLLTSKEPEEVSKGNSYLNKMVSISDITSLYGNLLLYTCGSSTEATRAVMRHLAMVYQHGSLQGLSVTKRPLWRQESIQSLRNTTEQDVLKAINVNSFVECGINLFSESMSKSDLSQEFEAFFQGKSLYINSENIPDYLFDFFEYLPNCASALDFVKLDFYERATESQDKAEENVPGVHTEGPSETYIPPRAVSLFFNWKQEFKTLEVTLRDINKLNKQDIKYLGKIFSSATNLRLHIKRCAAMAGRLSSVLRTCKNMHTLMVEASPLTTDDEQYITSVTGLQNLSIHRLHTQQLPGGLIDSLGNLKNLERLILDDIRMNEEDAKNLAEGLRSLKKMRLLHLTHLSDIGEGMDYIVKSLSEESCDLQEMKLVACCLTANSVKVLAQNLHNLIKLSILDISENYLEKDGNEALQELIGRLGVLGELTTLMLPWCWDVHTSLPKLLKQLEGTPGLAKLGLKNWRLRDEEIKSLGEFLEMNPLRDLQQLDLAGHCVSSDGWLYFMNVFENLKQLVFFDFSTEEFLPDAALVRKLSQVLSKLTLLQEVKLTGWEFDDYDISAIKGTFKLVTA

Compound: CC(C)(O)c1coc(S(=O)(=O)NC(=O)Nc2c3c(cc4c2CCC4)CCC3)c1 [MCC950, reference compound]
- IC50 (CYP2C9): 43 µM
- IC50 (CYP3A4): > 50 µM
- Mouse % PS (Mouse plasma stability): 99%
- half-life [1]: > 2.42 h
- Human % PS (Human plasma stability): 96%
- inhibition at 30 µM [2]: 21 ± 4.3%
- IC50 (CYP2D6): > 50 µM
- half-life [3]: > 2.42 h
- IC50 (CYP1A2): 20 µM
- fraction unbound [4]: 0.005
- fraction unbound [5, 10]: 0.006
- Tolerability in single-dose pharmacokinetic studies [6]: well tolerated
- bioavailability ([6]; male, C57BL/6J, mouse, mice): 71%
- Oral half-life ([6]; mice): 2.4 h

Compound: CC(C)n1ccc(S(=O)(=O)NC(=O)Nc2c3c(cc4c2CCC4)CCC3)n1 [MCC7840]
- IC50 (CYP2C9): 46 µM
- Inhibitory activity at AIM2 inflammasome (AIM2 inflammasome): not active
- IC50 (CYP3A4): > 50 µM
- Mouse % PS (Mouse plasma stability): 89%
- half-life [1]: > 2.42 h
- Inhibition or activation activity at any of 95 off-targets [7]: ≤ 35%
- Human % PS (Human plasma stability): 100%
- Inhibitory activity at NLRC4 inflammasome (NLRC4 inflammasome): not active
- inhibition at 30 µM [2]: 4.5 ± 3.1%
- IC50 (CYP2D6): > 50 µM
- half-life [3]: > 2.42 h
- ED50 ([8]; read-out: ED50 for dopamine loss (striatal dopamine content)): ~2.2 mg/kg
- ED50 ([8]; read-out: ED50 for motor behaviour (amphetamine-induced ipsilateral rotations)): ~0.9 mg/kg
- Amphetamine-induced rotations ([8]; all doses (1, 3, 10 mg/kg p.o. daily), Day 21): significantly reduced
- Striatal dopamine and its metabolites DOPAC and HVA ([8]; all treatment groups (1, 3, 10 mg/kg p.o. daily), Day 28): significant preservation
- IC50 (CYP1A2): 19 µM
- fraction unbound [4]: 0.003
- fraction unbound [5, 10]: 0.005
- fraction unbound ([5]; Plasma protein binding, stated in text with mouse pharmacokinetics): < 0.01
- Safety, tolerability and pharmacokinetics in Phase I (healthy subjects): excellent safety, tolerability and pharmacokinetic profile
- Rotarod motor deficit (PFF-Syn mouse model; 4 months post-injection, preventative (pre-PFF) group, 0.3 mg/ml drinking water): significantly attenuated
- Balance beam crossing latency (PFF-Syn mouse model; 4 months, pre-treated mice): significantly reduced
- Balance beam performance (PFF-Syn mouse model; [11]): improved balance beam performance
- Rotarod progressive motor decline (PFF-Syn mouse model; [11]): significantly protected
- Striatal dopamine loss and reduced metabolite levels (PFF-Syn mouse model; both dosing regimens, after PET imaging): significantly protected
- 18F-DPA-714 PET signal (PFF-Syn mouse model; both preventative and therapeutic groups, PET/MRI at 12 months (11 months in methods)): significantly reduced
- PFF-Syn-induced plasma IL-1β increase (PFF-Syn mouse model; preventative group): fully suppressed
- Reduction of PFF-Syn-induced plasma IL-1β (PFF-Syn mouse model; therapeutic group (from 4 months post-PFF)): ~70%
- Tolerability in single-dose pharmacokinetic studies [6]: well tolerated
- bioavailability ([6]; male, C57BL/6J, mouse, mice): 68%
- Kp at 2 h ([6]; male, C57BL/6J, mouse, mice, oral administration 20 mg/kg, total brain concentration, read-out: Brain-to-plasma ratio): ~0.035
- Oral half-life ([6]; mice): 5.0 h
- Gadolinium T1 relaxation time decrease (blood-brain barrier leakage) [9]: absent
- Loss of 18F-FBCTT signal (DAT) ([9]; Day 26): significant, but not complete protection
- 6-OHDA-induced increase in plasma IL-1β ([9]; Day 28): effectively suppressed
- Reduced ipsilateral 18F-FDOPA signal (dopamine uptake) ([9]; Day 28): significantly protected

Source: publication PMC13058460, “PET-MRI biomarkers reveal efficacy of a novel NLRP3 inhibitor in Parkinson’s disease models” (Brain, 2025)
